Assay results taken from ChEMBL document CHEMBL3132831, “Hedgehog signalling pathway inhibitors as cancer suppressing agents” (Medchemcomm, 2014).

Legend:
Sonic hedgehog protein [1] = biological target: T1, Sonic hedgehog protein (Mus musculus, UniProt Q62226); experiment: Inhibition of SHh in mouse LIGHT2 cells; type: cell-based
[2] = Inhibition of hedgehog pathway in mouse C3H10T1/2 cells assessed as alkaline phosphatase enzyme activity; type: cell-based; conditions: c3h 10t1/2
[3] = Antiproliferative activity against mouse medulloblastoma cells expressing wild type SMO; type: functional; conditions: Medulloblastoma cell
[4] = Inhibition of SAG-induced hedgehog pathway in mouse SHH-LIGHT2 cells; type: cell-based
[5] = Cytotoxicity against human SK-N-BE(2) cells after 72 hrs by fluorometric microculture cytotoxicity assay; type: functional; conditions: SKNBE2, 72 h, pooled result: one value given for 7 cell lines, strains, targets or settings
Protein smoothened = Protein smoothened (Homo sapiens, UniProt Q99835, D473H); experiment: Inhibition of Smo D473H mutant (unknown origin) expressed in mouse C3H10T1/2 cells by luciferase assay; type: cell-based, C3H 10T1/2
Sequence of Protein smoothened (Q99835 28-787 D473H limits assumed): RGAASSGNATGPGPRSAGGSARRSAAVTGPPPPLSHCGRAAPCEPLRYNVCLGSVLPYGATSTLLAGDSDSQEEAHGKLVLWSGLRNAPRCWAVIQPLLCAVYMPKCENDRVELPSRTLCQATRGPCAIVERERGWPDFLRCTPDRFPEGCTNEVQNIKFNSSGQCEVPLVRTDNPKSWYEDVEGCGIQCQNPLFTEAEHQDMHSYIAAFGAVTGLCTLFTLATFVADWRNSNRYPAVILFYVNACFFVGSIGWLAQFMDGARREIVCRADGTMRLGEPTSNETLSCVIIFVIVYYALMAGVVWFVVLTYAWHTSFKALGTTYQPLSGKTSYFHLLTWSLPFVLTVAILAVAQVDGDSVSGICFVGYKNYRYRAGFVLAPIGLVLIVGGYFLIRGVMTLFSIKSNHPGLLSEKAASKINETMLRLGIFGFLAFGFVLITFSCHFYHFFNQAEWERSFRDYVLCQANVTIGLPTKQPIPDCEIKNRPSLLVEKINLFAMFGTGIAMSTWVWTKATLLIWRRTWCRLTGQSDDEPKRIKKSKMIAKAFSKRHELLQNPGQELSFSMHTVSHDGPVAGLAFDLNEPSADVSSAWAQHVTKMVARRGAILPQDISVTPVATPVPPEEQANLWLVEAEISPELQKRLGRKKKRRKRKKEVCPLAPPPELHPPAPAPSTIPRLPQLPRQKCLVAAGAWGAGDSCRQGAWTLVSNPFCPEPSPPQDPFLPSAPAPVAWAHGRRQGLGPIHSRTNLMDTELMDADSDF

Sonic hedgehog protein [6] = biological target: T1, Sonic hedgehog protein; experiment: Inhibition of SHh in mouse NIH3T3 cells assessed as Gli activation; type: cell-based
Sonic hedgehog protein [7] = biological target: T1, Sonic hedgehog protein; experiment: Inhibition of SHh palmitoylation in mouse NIH3T3 cells; type: cell-based
[8] = Inhibition of SHH-mediated mouse C3H10T1/2 cell differentiation to osteoblasts; conditions: c3h 10t1/2
[9] = Decrease of cell density in human CCC cells at 50 nM up to 24 hrs; type: functional; design: scale not given: the % may be the effect or the level left

T1 sequence (Q62226 25-198 limits assumed): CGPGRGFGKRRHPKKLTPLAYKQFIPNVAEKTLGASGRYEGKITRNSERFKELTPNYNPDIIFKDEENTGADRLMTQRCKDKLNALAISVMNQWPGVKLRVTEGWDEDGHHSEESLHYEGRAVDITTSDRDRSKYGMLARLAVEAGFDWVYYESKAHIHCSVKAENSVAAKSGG

## O=C(NN1CCN(c2nc(-c3cnc4ccccc4n3)no2)CC1)C1CCCCC1
Sonic hedgehog protein [1]
  IC50: 5 nM

## Clc1ccc(N2CCC(N3CCCC3)CC2)cc1-c1nc2ccccc2[nH]1
[2]
  IC50: 23 nM

## CCC(C)n1ncn(-c2ccc(N3CCN(c4ccc(OCC5COC(Cn6cncn6)(c6ccc(Cl)cc6Cl)O5)cc4)CC3)cc2)c1=O (centres undefined) [ITRACONAZOLE]
[3]
  IC50: 55 nM

## O=C(NN1CCN(c2nc(-c3ccc4ccccc4n3)no2)CC1)C1CCC(F)(F)CC1
Sonic hedgehog protein [1]
  IC50: 25 nM

## OCCNc1nc(N2CCN(c3ccccc3)CC2)nc2ccccc12
[4]
  IC50: < 10000 nM

## COCCOC(=O)C1=C(C)NC2=C(C(=O)CC(c3ccccc3OC)C2)C1c1cccc(O)c1 (centres undefined)
[4]
  IC50: < 10000 nM

## CN(C)c1ccccc1CN1CCCN(Cc2ccccc2N(C)C)C1c1ccncc1
[5]
  GI50: 5820 nM

## Cc1c(Cc2ccccc2)nnc(N2CCN(c3cnc(C(C)(C)O)cn3)[C@H](C)C2)c1C [LEQ506]
Protein smoothened
  IC50: < 100 nM

## N#C/C(C(=O)c1ccc(Cl)cc1Cl)=C1\NC(=O)c2ccccc2N1
[4]
  IC50: < 10000 nM

## CCC(C)CNCC(=O)N1CCc2sccc2C1COc1cccc(C)c1 (centres undefined)
Sonic hedgehog protein [6]
  IC50: 10000 nM
Sonic hedgehog protein [7]
  IC50: 10000 nM

## COc1ccc(OC)c2c1cc1n2CC(C)(C(=O)NC2CCCCCCC2)N(CCN(C)C)C1=O (centres undefined)
[4]
  IC50: < 10000 nM

## CC1=C2C[C@H]3[C@@H](CCC4=CC(=O)CC[C@@]43C)[C@@H]2CC[C@@]2(C1)O[C@@H]1C[C@H](C)CN[C@H]1[C@H]2C
[8]
  EC50: 200 nM

## C=C1CC[C@H](O)C/C1=C/C=C1\CCC[C@]2(C)[C@@H]([C@H](C)CCCC(C)C)CC[C@@H]12 [CHOLECALCIFEROL]
[9]
  Activity: <=90%
